This passage reports IC50 results from BindingDB's records for doi:10.7270/Q2BZ64GK (Burnham Center For Chemical Genomics, 2009).

The structures appear in SMILES notation.

The assay has as its target T1, Tyrosine-protein phosphatase non-receptor type 22 (Homo sapiens, UniProt Q9Y2R2).
T1 sequence (Q9Y2R2 whole entry): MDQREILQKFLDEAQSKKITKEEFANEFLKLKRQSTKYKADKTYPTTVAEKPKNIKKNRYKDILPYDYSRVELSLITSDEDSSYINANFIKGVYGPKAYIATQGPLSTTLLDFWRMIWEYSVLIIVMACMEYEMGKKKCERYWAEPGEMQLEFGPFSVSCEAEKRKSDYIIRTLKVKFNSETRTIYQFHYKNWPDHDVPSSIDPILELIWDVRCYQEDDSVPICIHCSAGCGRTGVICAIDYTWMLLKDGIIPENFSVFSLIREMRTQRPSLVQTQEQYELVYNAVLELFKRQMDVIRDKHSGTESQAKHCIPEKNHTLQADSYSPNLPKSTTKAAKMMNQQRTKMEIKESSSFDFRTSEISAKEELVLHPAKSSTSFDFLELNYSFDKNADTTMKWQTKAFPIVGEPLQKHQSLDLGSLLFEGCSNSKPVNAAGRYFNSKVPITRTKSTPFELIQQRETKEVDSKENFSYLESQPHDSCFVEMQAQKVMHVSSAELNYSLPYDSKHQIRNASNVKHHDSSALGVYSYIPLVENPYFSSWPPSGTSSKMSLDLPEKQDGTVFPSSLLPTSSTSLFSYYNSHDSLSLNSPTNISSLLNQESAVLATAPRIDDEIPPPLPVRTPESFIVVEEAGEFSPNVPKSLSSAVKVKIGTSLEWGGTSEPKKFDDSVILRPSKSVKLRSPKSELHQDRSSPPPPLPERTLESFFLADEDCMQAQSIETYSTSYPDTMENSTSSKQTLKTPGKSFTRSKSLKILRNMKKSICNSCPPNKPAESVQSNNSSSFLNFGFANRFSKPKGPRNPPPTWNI
The assay is described as follows: PubChem AID 2135.

By IC50 is commonly meant the concentration needed to halve the response being measured. A lower IC50 goes with greater potency. For the compound `CCOc1ccc2nc(NC(=O)CSc3cc(O)c4c(C)c(C)sc4n3)sc2c1` [2-[(2,3-dimethyl-4-oxidanylidene-5H-thieno[2,3-b]pyridin-6-yl)sulfanyl]-N-(6-ethoxy-1,3-benzothiazol-2-yl)ethanamide], the IC50 was greater than 100 µM.
